The values that follow come from paper PMC12290638, “Cubebin, a Lignan Isolated from Drimys andina, Exhibits Potent and Selective Antiparasitic Activity against Angiostrongylus cantonensis” (ACS Omega, 2025).

Entries after “also recorded” stand apart in the source; their conditions may differ. Where two headings read alike, the source gives them in different places. A value given as a limit tells only on which side of the number the result lay.

Data set [1] is described as follows: Cytotoxicity assay (MTT), Vero cells. The data set is classed as cell-based, monkey. The note with it: monkey, Vero cells, MTT, 48 h exposure per figure legend (method: 24 h), read-out: mammalian cells CC50, monkey. As for the experimental part:
(§1) HaCaT cells (human keratinocytes) were obtained from the Banco de Células do Rio de Janeiro (Duque de Caxias, RJ, Brazil), and Vero cells (monkey kidney epithelial cells) were purchased from the American Type Culture Collection (ATCC CCL-81; Manassas, V). Cells were cultured in DMEM supplemented with 2 mM L-glutamine (Vitrocell), 100 U/mL penicillin, 100 μg/mL streptomycin, and 10% heat-inactivated fetal bovine serum, and maintained at 37 °C in a humidified atmosphere containing 5% CO2.
(§2) Cytotoxicity was evaluated using the MTT assay as previously described. Briefly, cells were seeded into 96-well plates (Corning) at a density of 2 × 10^3 cells per well and exposed to cubebin. The initial concentration tested was 500 μM, followed by 3-fold serial dilutions. Doxorubicin (15 μM) served as the positive control, while 0.5% DMSO was used as negative control. After 24 h of incubation at 37 °C with 5% CO2, MTT solution (Sigma) was added, and plates were incubated for an additional 4 h. Absorbance was measured at 595 nm using a spectrophotometer (Epoch, BioTek Instruments, Winooski, VT). Cell viability was expressed as a percentage relative to control wells. All assays were performed in triplicate and repeated independently three times.
(§3) EC50 and CC50 values were calculated from nonlinear sigmoidal dose–response curves using GraphPad Prism version 8.0 (San Diego, CA). Group differences were analyzed using one-way ANOVA followed by Tukey’s post hoc test. A P-value of <0.05 was considered statistically significant.

For data set [2], the system named is Vero cells (monkey kidney epithelial cells). Nature of the data set: Cytotoxicity assay (MTT), Vero cells. The data set is classed as cell-based. The settings on record: at concentrations up to 200 μM. As for the experimental part:
as §1, §2, §3

The subject of data set [3] is Angiostrongylus cantonensis infective third-stage (L3) larvae. Kind of data set: Antiparasitic assay with A. cantonensis L3 larvae (motility). The data set is classed as cell-based. The settings on record: for EC50: read-out: A. cantonensis EC50, L3; for selectivity index, L3: SI = CC50 (human HaCaT cells)/EC50 (L3). As for the experimental part:
(§4) The life cycle of A. cantonensis (NPDN-AC strain) was maintained at the Research Center on Neglected Diseases, Guarulhos University, using either Biomphalaria glabrata (freshwater snails) or Achatina fulica (terrestrial mollusks) as intermediate hosts, and Wistar rats (Rattus norvegicus) as definitive hosts. All animals were maintained under controlled conditions (22 °C, ∼50% humidity) with ad libitum access to food and water.
Third-stage larvae (L3) of A. cantonensis were obtained from infected A. fulica via artificial digestion in HCl-pepsin solution, followed by sedimentation using the modified Rugai method. Approximately 50 larvae were added per well in 96-well plates. Cubebin and albendazole were tested starting at 100 μM in a serial dilution format for EC50 estimation. Plates were incubated at 21 °C, and larval viability was assessed at 0 and 24 h using an inverted microscope. […] Efficacy was defined as ≥60% immobility after 24 h.
as §3

Data set [4] relates to Caenorhabditis elegans (Bristol N2 strain) L4 larvae. Kind of data set: Lethal toxicity assay in C. elegans. The data set is classed as in vivo. The note with it: for C. elegans LD50 (lethal concentration 50%): L4 larvae, immobility, 72 h exposure per b20 (method b64: 24 h); for toxicity in C. elegans: cubebin at concentrations up to 1000 μM. On the procedure:
The nematode C. elegans (Bristol N2 strain) was maintained on nematode growth medium (NGM) plates seeded with Escherichia coli […].
Synchronized fourth-stage larvae (L4) of C. elegans were transferred to 96-well plates containing M9 medium, with approximately 60 larvae per well. Cubebin was tested at concentrations starting from 1000 μM. Ivermectin (10 μM) served as the positive control, while 0.5% DMSO was used as the negative control. After 24 h of incubation at 21 °C, larval viability was evaluated based on movement. Toxicity was defined as ≥60% immobility.

Data set [5] has as its system Angiostrongylus cantonensis first-stage (L1) larvae. Nature of the data set: Antiparasitic assay with A. cantonensis L1 larvae (motility). The data set is classed as cell-based. The note with it: for EC50: Angiostrongylus cantonensis, read-out: A. cantonensis EC50, L1; for selectivity index, L1: SI = CC50 (human HaCaT cells)/EC50 (L1). On the procedure:
as §4
First-stage larvae (L1) of A. cantonensis were isolated from the feces of infected Wistar rats using the Rugai sedimentation technique, followed by washing in RPMI 1640 medium containing antibiotics. Approximately 50 larvae were transferred to each well of a 96-well plate. Cubebin and albendazole (positive control) were tested starting at 100 μM using a serial dilution format for EC50 determination. Plates were incubated at 21 °C. Untreated larvae served as negative controls. […] Efficacy was defined as ≥60% of larvae becoming immobile after 24 h.
as §3

The test system of data set [6] is HaCaT cells (human keratinocytes). Kind of data set: Cytotoxicity assay (MTT), HaCaT cells. The data set is classed as cell-based. The settings on record: at concentrations up to 200 μM. As for the experimental part:
as §1, §2, §3

Data set [7] in a line: Cytotoxicity assay (MTT), HaCaT cells. The data set is classed as cell-based, human. The settings on record: human, HaCaT cells, MTT, 48 h exposure per figure legend (method: 24 h), read-out: mammalian cells CC50, human. On the procedure:
as §1, §2, §3

[8] abbreviates: 24 h, score 1 = immotile to 4 = highly active.

Take `CCCSc1ccc2nc(NC(=O)OC)[nH]c2c1` [albendazole, reference compound]: the 50% cytotoxic concentration (CC50) at 48 h in data set [1] and in data set [7] was over 200 µM each time. For the same molecule, the “cytotoxicity in Vero cells” value in data set [2] was “no cytotoxicity”. Moreover, the concentration for a half-maximal effect (EC50) – broadly, the midpoint of the concentration-response curve – turned out to be 12.3 ± 1.9 µM in data set [3] (Angiostrongylus cantonensis, 24 h) and 12.8 ± 1.3 µM in data set [5] (24 h). Moreover, in data set [3], the “selectivity index, L3” value was over 16.2. Besides, the “C. elegans LD50 (lethal concentration 50%)” value in data set [4] stood at 13.6 ± 1.1 µM. Also, the “toxicity in C. elegans” value in data set [4] is on record as “potent toxicity”. In addition, the “selectivity index, L1” value in data set [5] is recorded as over 15.6. The “cytotoxicity in HaCaT cells” value in data set [6] is reported as “no cytotoxicity”.
Take `OC1OCC(Cc2ccc3c(c2)OCO3)C1Cc1ccc2c(c1)OCO2` (centres unmarked) [cubebin]: the half-maximal cytotoxic concentration (CC50) (as a rule, the concentration at which the toxic effect on the cells reaches its halfway point) at 48 h in data set [1] (Vero cells (monkey kidney epithelial cells, ATCC CCL-81)) was over 200 µM; in data set [7] (HaCaT cells (human keratinocytes)) it was over 200 µM. In data set [2], the “cytotoxicity in Vero cells” value is “no cytotoxicity”. For the same molecule, in data set [3] (setting [8]), the “larval viability (motility) score, L3” value came to 1. Besides, the EC50 was 15.3 µM in data set [3] (Angiostrongylus cantonensis, 24 h, infective third-stage (L3) larvae, 24 h, 21 °C, immobility, mean ± SD, three independent experiments); 15.2 ± 0.9 µM in data set [3] (infective third-stage (L3) larvae, 24 h, 21 °C, immobility, mean ± SD, three independent experiments); 4.7 ± 0.8 µM in data set [5] (first-stage (L1) larvae, 24 h, 21 °C, immobility, mean ± SD, three independent experiments). Further, the “selectivity index, L3” value in data set [3] was over 13.1. In data set [4], the “C. elegans LD50 (lethal concentration 50%)” value is over 1000 µM. In addition, in data set [4], the “toxicity in C. elegans” value is “no observable toxicity; also recorded: nontoxic”. In data set [5] (setting [8]), the “larval viability (motility) score, L1” value turned out to be 1. Also, the “selectivity index, L1” value in data set [5] was over 42.5. The “cytotoxicity in HaCaT cells” value in data set [6] was “no cytotoxicity”.
